biological target: T1, NMDA receptor composed of four subunits including 2 sets of heterodimers of NR1 and NR2B (Homo sapiens, UniProt Q13224); test: NR2B Ca2+ influx assay (FLIPR, Fluo-4) in HEK293 cells expressing human GRIN1 and GRIN2B; assay type: cell-based; conditions: HEK293, 10 μM final compound concentration, glutamic acid/glycine-induced Ca2+ influx, read-out: inhibitory rate (10 μM compound concentration)
T1 construct: host or cells: HEK293 (tetracycline-induced expression)
Source text: To confirm the “antagonistic action on an NMDA receptor containing the NR2B subunit” of the compound of the present invention, human embryonic kidney cell expressing the “NMDA receptor composed of four subunits including 2 sets of heterodimers of NR1 and NR2B”, specifically HEK293 cell expressing human glutamate ionotropic receptor NMDA type subunit 1 (GRIN1) and human glutamate ionotropic receptor NMDA type subunit 2B (GRIN2B), was used and the activation suppressive effect on the receptors was measured.
As an index of the NMDA receptor activation, intracellular calcium ion (Ca^2+) influx caused by the binding of glycine and glutamic acid with NR1 and NR2B, respectively, was used. HEK293 cells were purchased from ChanTest. The cells were cultured in a DMEM/F-12 (COSMO BIO, 10-092-CM) medium added with 10% FBS′(fetal bovine serum, AusGene), 100 units/mL penicillin, 100 μg/mL streptomycin, 500 μg/mL neomycin, 100 μg/mL Zeocin, 5 μg/mL Blasticidin at 37° C., 5% CO2. The cells were detached from flask with trypsin the day before the assay, suspended in a seeding medium (DMEM (Invitrogen, 31053) added with 10% FBS, 100 units/mL penicillin, 100 μg/mL streptomycin) at 8×10^5 cells/mL, seeded by 25 μL per well in a 384-well plate (Falcon, 356663) at 20000 cells/well, and cultured overnight in an incubator. On the day of the assay, tetracycline (Wako Pure Chemical Industries, Ltd., 209-16561) was diluted with the seeding medium at 2 μg/mL, added at […] to the plate seeded with the cells, and cultured for 2 hr in an incubator. Thereafter, the medium was removed, and the cells were washed with 50 μL/well assay buffer (137 mM NaCl, 4 mM KCl, 1.8 mM CaCl2, 10 mM HEPES (pH 7.2), 10 mM Glucose, 0.1% BSA). Then, a loading buffer (assay buffer added with 2.5 uM Fluo-4AM, 2 mM Amaranth, 1 mM Tartrazine) was added at 25 μL/well, and loading was performed in the incubator for 30 min, and at room temperature for 15 min. A solution (25 μL) of the Example compound diluted with the above-mentioned assay buffer at 30 μM (final concentration 10 μM) was added, and the cells were stood for 15 min at room temperature. Using FLIPR (Molecular Devices), 25 μL of an assay buffer containing 30 μM glutamic acid, 30 μM glycine was added, and the fluorescence signal was measured every 3 seconds for 5 min. The inhibitory activity was calculated as a relative activity value (inhibitory rate) that inhibits 100% of the cumulative value of the fluorescence value of a well added with a buffer free of glutamic acid, glycine, relative to the cumulative value of the fluorescence value of each well.

T1 sequence (Q13224 27-1484, other chains not shown): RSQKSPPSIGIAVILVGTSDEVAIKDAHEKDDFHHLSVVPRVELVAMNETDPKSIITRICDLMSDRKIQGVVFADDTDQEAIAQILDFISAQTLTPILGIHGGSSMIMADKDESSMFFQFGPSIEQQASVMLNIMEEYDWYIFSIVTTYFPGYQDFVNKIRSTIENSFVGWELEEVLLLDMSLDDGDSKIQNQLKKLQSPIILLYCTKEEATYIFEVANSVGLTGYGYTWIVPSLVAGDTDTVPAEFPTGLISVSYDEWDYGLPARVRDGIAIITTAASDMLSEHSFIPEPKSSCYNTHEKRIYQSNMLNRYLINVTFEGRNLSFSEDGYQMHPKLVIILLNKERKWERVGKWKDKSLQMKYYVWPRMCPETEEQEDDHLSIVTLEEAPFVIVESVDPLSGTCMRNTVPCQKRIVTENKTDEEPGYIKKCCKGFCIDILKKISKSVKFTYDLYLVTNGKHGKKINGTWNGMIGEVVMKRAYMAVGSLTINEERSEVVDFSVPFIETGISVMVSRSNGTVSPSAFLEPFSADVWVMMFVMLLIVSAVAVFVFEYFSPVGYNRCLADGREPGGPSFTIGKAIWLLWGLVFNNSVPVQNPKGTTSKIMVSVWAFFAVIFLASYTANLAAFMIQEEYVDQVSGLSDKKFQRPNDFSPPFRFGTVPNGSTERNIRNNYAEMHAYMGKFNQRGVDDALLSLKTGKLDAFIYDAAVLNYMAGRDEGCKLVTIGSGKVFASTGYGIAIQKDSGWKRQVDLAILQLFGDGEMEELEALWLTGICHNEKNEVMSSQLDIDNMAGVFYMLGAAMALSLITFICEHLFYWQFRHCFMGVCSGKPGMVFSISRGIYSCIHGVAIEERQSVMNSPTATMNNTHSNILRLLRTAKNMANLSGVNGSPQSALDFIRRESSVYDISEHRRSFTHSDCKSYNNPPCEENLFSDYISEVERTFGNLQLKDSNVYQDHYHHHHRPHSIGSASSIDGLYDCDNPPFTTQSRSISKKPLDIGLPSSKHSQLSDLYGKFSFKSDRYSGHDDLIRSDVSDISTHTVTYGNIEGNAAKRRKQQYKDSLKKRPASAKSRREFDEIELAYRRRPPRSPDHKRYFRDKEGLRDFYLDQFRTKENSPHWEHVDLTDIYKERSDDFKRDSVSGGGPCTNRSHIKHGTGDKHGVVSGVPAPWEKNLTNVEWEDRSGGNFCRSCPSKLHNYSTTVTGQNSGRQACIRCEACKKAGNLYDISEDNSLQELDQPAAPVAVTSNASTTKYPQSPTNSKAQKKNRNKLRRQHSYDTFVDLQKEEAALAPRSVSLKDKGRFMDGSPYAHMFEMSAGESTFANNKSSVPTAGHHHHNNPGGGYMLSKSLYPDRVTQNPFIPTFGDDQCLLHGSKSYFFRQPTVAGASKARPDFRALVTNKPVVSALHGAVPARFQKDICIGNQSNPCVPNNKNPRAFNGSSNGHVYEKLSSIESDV

Compound | inhibition at 10 µM [%]
O=C(NCc1c(C2CC2)ccc2[nH]ncc12)c1ccc(F)c(Cl)c1 [Example 77, 3-chloro-N-((5-cyclopropyl-1H-indazol-4-yl)methyl)-4-fluorobenzamide] | 92
CCOc1ncc(C(=O)NCc2c(C3CC3)ccc3[nH]ncc23)cc1Cl [Example 104, 5-chloro-N-((5-cyclopropyl-1H-indazol-4-yl)methyl)-6-ethoxynicotinamide] | 90
Cc1ccc2ncn(C)c2c1CNC(=O)c1csc(Cl)c1 [Example 156, 5-chloro-N-((1,6-dimethyl-1H-benzimidazol-7-yl)methyl)thiophene-3-carboxamide] | 76
O=C(NCc1cccc2[nH]ncc12)c1ccc(C(F)(F)F)cc1 [Example 175, N-(1H-indazol-4-ylmethyl)-4-(trifluoromethyl)-benzamide] | 82
O=C(NCc1cccc2[nH]ncc12)c1ccc(C(F)F)cc1 [Example 177, 4-(difluoromethyl)-N-(1H-indazol-4-ylmethyl)benzamide] | 52
Cc1ccc(C(=O)NCc2c(C3CC3)ccc3[nH]ncc23)cc1Cl [Example 74, 3-chloro-N-((5-cyclopropyl-1H-indazol-yl)methyl)-4-methylbenzamide] | 93
Cc1ccc2[nH]nnc2c1CNC(=O)c1ccc(OC(F)(F)F)cc1 [Example 194, N-((5-methyl-1H-benzotriazol-4-yl)methyl)-4-(trifluoromethoxy)-benzamide] | 97
Cn1nnc2cccc(CNC(=O)c3ccc(OC(F)(F)F)c(F)c3)c21 [Example 274, 3-fluoro-N-[(1-methyl-1H-benzotriazol-7-yl)methyl]-4-(trifluoromethoxy)-benzamide] | 93
O=C(NCc1cccc2[nH]ncc12)c1ccc(C(F)(F)F)s1 [Example 167, N-(1H-indazol-4-ylmethyl)-5-(trifluoromethyl)-thiophene-2-carboxamide] | 58
COc1ccc(C(=O)NCc2c(C3CC3)ccc3[nH]ncc23)cc1Cl [Example 80, 3-chloro-N-((5-cyclo-propyl-1H-indazol-4-yl)methyl)-4-methoxybenzamide] | 93
CCc1ccc2ncn(C)c2c1CNC(=O)c1ccc(C(F)F)cc1 [Example 133, 4-(difluoromethyl)-N-((6-ethyl-1-methyl-1H-benzimidazol-7-yl)methyl)benzamide] | 91
Cc1ccc2[nH]nnc2c1CNC(=O)c1ccc(OC(F)F)c(F)c1 [Example 263, 4-(difluoromethoxy)-3-fluoro-N-((5-methyl-1H-benzotriazol-4-yl)methyl)benzamide] | 98
Cc1n[nH]c2cccc(CNC(=O)c3cnc(OC(F)F)c(F)c3)c12 [Example 271, 6-(difluoromethoxy)-5-fluoro-N-((3-methyl-1H-indazol-4-yl)methyl)nicotinamide] | 82
COc1ncc(C(=O)NCc2cccc3[nH]ncc23)cc1Cl [Example 169, 5-chloro-N-(1H-indazol-4-ylmethyl)-6-methoxynicotinamide] | 70
Cc1ccc2[nH]nnc2c1CNC(=O)c1cnc(OC(F)F)c(F)c1 [Example 268, 6-(difluoromethoxy)-5-fluoro-N-((5-methyl-1H-benzotriazol-4-y1)methyl)nicotinamide] | 97
O=C(NCc1c(C2CC2)ccc2[nH]ncc12)c1cc(F)c(C(F)(F)F)c(F)c1 [Example 91, N-((5-cyclopropyl-1H-indazol-4-yl)methyl)-3,5-difluoro-4-(trifluoro-methyl)benzamide] | 94
O=C(NCc1c(I)ccc2[nH]ncc12)c1ccc(OC(F)(F)F)cc1 [Example 4, N-((5-iodo-1H-indazol-4-yl)methyl)-4-(trifluoromethoxy)benzamide] | 87
O=C(NCc1cccc2[nH]ncc12)c1ccc(OC(F)(F)F)c(F)c1 [Example 179, 3-fluoro-N-(1H-indazol-4-ylmethyl)-4-(trifluoromethoxy)-benzamide] | 96
O=C(NCc1c(C2CC2)ccc2[nH]ncc12)c1cnc(OC(F)F)c(Cl)c1 [Example 121, 5-chloro-N-((5-cyclopropyl-1H-indazol-4-yl)methyl)-6-(difluoromethoxy)-nicotinamide] | 91

Second part, the compound after the results:

inhibition at 10 µM [%] | Compound
90 | Cc1ccc2ncn(C)c2c1CNC(=O)c1ccc(OC(F)F)cc1 [Example 135, 4-(difluoromethoxy)-N-((1,6-dimethyl-1H-benzimidazol-7-yl)methyl)benzamide]
92 | CCOc1ccc2ncn(C)c2c1CNC(=O)c1cc(F)c(OC)c(F)c1 [Example 127, N-((6-ethoxy-1-methyl-1H-benzimidazol-7-yl)methyl)-3,5-difluoro-4-methoxybenzamide]
87 | COc1ccc(NC(=O)NCc2c(OC)ccc3ncn(C)c23)c(F)c1F [Example 259, 1-(2,3-difluoro-4-methoxyphenyl)-3-((6-methoxy-1-methyl-1H-benzimidazol-7-yl)methyl)urea]
69 | COc1ccc2nc(C)n(C)c2c1CNC(=O)c1ccc(C(F)F)c(F)c1 [Example 242, 4-(difluoromethyl)-3-fluoro-N-((6-methoxy-1,2-dimethyl-lH-benzimidazol-7-yl)methyl)benzamide]
92 | COc1ccc2ncn(C)c2c1CNC(=O)c1cc(F)c(OC)c(F)c1 [Example 8, 3,5-Difluoro-4-methoxy-N-((6-methoxy-1-methyl-1H-benzimidazol-7-yl)methyl)benzamide]
81 | COc1ccc2ncn(C)c2c1CNC(=O)Nc1ccc(F)cc1 [Example 224, 1-(4-fluorophenyl)-3-((6-methoxy-1-methyl-1H-benzimidazol-7-yl)methyl)urea]
72 | COc1ccc2ncn(C)c2c1CNC(=O)Nc1cccc(Cl)c1 [Example 219, 1-(3-chlorophenyl)-3-((6-methoxy-1-methyl-1H-benzimidazol-7-yl)methyl)urea]
91 | CCc1cc(C(=O)NCc2c(OC)ccc3ncn(C)c23)cs1 [Example 29]
92 | COc1ccc2ncn(C)c2c1CNC(=O)c1ccc(C)c(F)c1 [Example 14, 3-fluoro-N-((6-methoxy-1-methyl-1H-benzimidazol-7-yl)methyl)-4-methylbenzamide]
61 | COc1ccc2ncn(C)c2c1CNC(=O)c1cc(C)cs1 [Example 43, N-((6-methoxy-1-methyl-1H-benzimidazol-7-yl)-methyl)-4-methylthiophene-2-carboxamide]
53 | COc1ccc2ncn(C)c2c1CNC(=O)Nc1cccc(C)c1 [Example 215, 1-((6-methoxy-1-methyl-1H-benzimidazol-7-yl)methyl)-3-(3-methylphenyl)urea]
92 | COc1ccc2ncn(C)c2c1CNC(=O)c1cnc(OC)c(F)c1 [Example 10, 5-fluoro-6-methoxy-N-((6-methoxy-1-methyl-1H-benzimidazol-7-yl)methyl)nicotinamide]
93 | CCOc1ncc(C(=O)NCc2c(OC)ccc3ncn(C)c23)cc1Cl [Example 58, 5-chloro-6-ethoxy-N-((6-methoxy-1-methyl-1H-benzimidazol-7-yl)methyl)nicotinamide]
92 | COc1ccc2ncn(C)c2c1CNC(=O)Nc1ccc(C(F)(F)F)c(F)c1 [Example 261, 1-(3-fluoro-4-(trifluoromethyl)-phenyl)-3-{(6-methoxy-1-methyl-1H-benzimidazol-7-yl)methyl)urea]
77 | COc1ccc2ncn(C)c2c1CNC(=O)c1ccc(CC(F)(F)F)cc1 [Example 278, N-[(6-methoxy-1-methyl-1H-benzimidazol-7-yl)methyl]-4-(2,2,2-trifluoroethyl)-benzamide]
90 | COc1ccc2ncn(C)c2c1CNC(=O)c1ccc(C(F)(F)F)c(Cl)c1 [Example 51, 3-chloro-N-((6-methoxy-1-methyl-1H-benzimidazol-7-yl)-methyl)-4-(trifluoro-methyl)benzamide]
86 | COc1ccc2nc(C)n(C)c2c1CNC(=O)c1cc(F)c(OC)c(F)c1 [Example 214, 3,5-difluoro-4-methoxy-N-((6-methoxy-1,2-dimethyl-lH-benzimidazol-7-yl)methyl)benzamide]

Reference: patent publication US11230541B2, “Heterocyclic compound” (Takeda Pharmaceutical Company Limited, priority 2017, dated 2022)
